Experimental data reported in patent publication US20030215397A1, “Method of treatment of skin diseases related to microbial antigens in the skin” (priority 2002, published 2003).

What was measured:
[1] = tested on: streptococcal antigen (Dnase-B) in the skin; experiment: LSAB stain (antibody to Streptozyme) of a biopsy from the treated psoriatic lesion site; type: in vivo, streptococci; settings: person with severe psoriasis; pump spray with 40% by weight isopropyl myristate in alcohol carrier, on one lesion twice a day for two weeks; stain positive before treatment
Method: Anti-body levels of many such patients, to streptococcal exoenzymes, deoxyribonuclease B, hyaluronidase, streptolysin O, and Streptozyme (a commercial product made from streptococci and containing Dnase-B as one of its constituents., a registered trademark of Carter-Wallace, Inc. and available from Wampole Labs, of Cranbury, N.J.), when measured will be found to be elevated prior to the treatment in accordance with this invention. The presence of these antigens are tested for by using a primary rabbit polyclonal antibody to, e.g., Streptozyme® with a linked streptavidin biotin alkaline phosphatase (“LSAB”) amplification stain, available from Dako, of Carpinteria, Calif. A prominent red stain on the biopsied skin indicates the presence of the antigens.
A person, suffering from severe psoriasis came for treatment. Their psoriasis had become severe at a time about 20 years earlier when they had recurring sore throats and tonsilitis. Their sore throats had ceased, but their psoriasis persisted. A blood sample was taken to measure […] antibody level to Dnase-B, a streptococcal exoenzyme; It was determined that they were a streptococcal carrier. A 4 mm punch biopsy was taken at the same time from a psoriatic plaque on their posterior thigh. The biopsy was first exposed to an antibody to Streptozyme®, and stained using the LSAB test. […]

[2] = tested on: psoriatic lesion; experiment: Topical treatment of a psoriatic lesion in a patient, appearance of the lesion; type: in vivo, human; settings: person with severe psoriasis; pump spray with 40% by weight isopropyl myristate in alcohol carrier, on one lesion twice a day for two weeks
Method: A person, suffering from severe psoriasis came for treatment. Their psoriasis had become severe at a time about 20 years earlier when they had recurring sore throats and tonsilitis. Their sore throats had ceased, but their psoriasis persisted. A blood sample was taken to measure […] antibody level to Dnase-B, a streptococcal exoenzyme; It was determined that they were a streptococcal carrier. A 4 mm punch biopsy was taken at the same time from a psoriatic plaque on their posterior thigh. The biopsy was first exposed to an antibody to Streptozyme®, and stained using the LSAB test.
The patient was provided with a pump spray bottle containing 40% by weight of isopropyl myristate in an alcohol carrier, and instructed to spray the liquid on one particular lesion twice a day for two weeks. […] That site was biopsied and given the LSAB test, as before. The stain was negative, indicating the cleansing of the streptococcal antigen from the skin that had been treated with the 40% isopropyl myristate spray, and it was accompanied by a clearing of the lesion.
The composition in each case is liberally applied and the patient otherwise is permitted to carry out the usual hygiene, showering or bathing. […]

SMILES: CCCCCCCCCCCCCC(=O)OC(C)C [isopropyl myristate]
- LSAB stain for streptococcal antigen in the biopsied treated site [1]: negative
- clearing of the sprayed lesion [2]: substantially clear of the disease
